Laboratory results published in patent US7803766B2, “Gastrin compositions and formulations, and methods of use and preparation” (Warath Pharmaceuticals, Inc, priority 2002, dated 2010).
Where a SMILES comes first, the peptide text is derived from it. [ ]: non-standard residue; d: D form. pGlu = O=C1CC[C@@H](C(=O)O)N1

Legend:
[1] = cynomolgus monkey, in vivo
Method: Male animals were used in the example. Each animal received gastrin by intravenous administration (3 μg/kg, 10 μg/kg and 30 μg/kg). The dosing solutions for intravenous injection were administered as a single bolus dose via the saphenous vein at a dose volume of 1 mL/kg. A 0.2 mL saline flush was administered following dosing in order to ensure administration of the complete dose volume. The actual volume administered to each animal was based on the animal's most recent body weight.
Serial blood samples (approximately 0.5 ml per time point) were collected via the brachial or femoral vein at the following time points: 0 (pre-dose), 1, 3, 5, 10, 15, 30 minutes, 1, 2, and 4 hours post dose.
Each sample was collected into a tube containing EDTA and kept on wet ice pending centrifugation. The samples were centrifuged under refrigeration for a minimum of 10 minutes at 1,500 g (RCF) and the resultant plasma was transferred into duplicate tubes and placed on dry ice. All samples were stored frozen for PK analysis as described below.
Gastrin in plasma samples was measured with a well established competitive radioimmunoassay for the quantitative determination of gastrin (Russell et al., Postgraduate Medical Journal 52:645, 1976). […] The antigen was labeled with ^125I and the presence of the antigen:antibody reactions were detected using a gamma counter. […]

[2] = in vivo; cited from earlier work
[3] = system: NOD mice with recent onset diabetes; test: Modified and unmodified gastrin in combination with GLP-1 in preventing diabetes progression in NOD mice with recent onset diabetes; format: in vivo; details: 3 μg/kg/day gastrin equivalent with GLP-1 100 μg/kg/day i.p. daily for 14 days, compared to GLP-1 with native gastrin (Compound B)
From the text: In this example, the effect of treatment by a combination of GLP-1 and unmodified gastrin and GLP-1 and modified gastrin compounds/conjugates were examined in NOD mice with recent onset diabetes, to determine whether administration of both GLP-1 and gastrin would prevent severe hyperglycemia as well as increase pancreatic insulin content in NOD mice with recent-onset diabetes. The GLP-1 used was GLP-1 which is the biologically active fragment of human/mouse GLP-1 (having residues at positions 7-36 compared to the precursor from which the fragment is processed; obtained from Bachem H6795). […]
Non-obese diabetic (NOD) female mice, ages 12-14 weeks, were monitored for development of onset of diabetes (fasting blood glucose >8.0 to 15 mmol/l), and within 48 hours after onset of symptoms, four groups of mice were each treated as follows: one group was treated with vehicle only, and the other group was administered 100 μg/kg/day of GLP-1, and the remaining groups were treated with combination of GLP-1 (100 μg/kg/day) and gastrin compound (3 μg/kg/day gastrin equivalent), each treatment administered via the intraperitoneal route daily.
Therapy was administered for 14 days. Animals were monitored weekly for fasting blood glucose (FBG) levels. FBG levels were measured at about 12 hours after food had been withdrawn, and 24 hours after the last peptide or vehicle injection. […]

Compound: CC(C)C[C@H](NC(=O)[C@H](Cc1c[nH]c2ccccc12)NC(=O)CNC(=O)[C@H](Cc1ccc(O)cc1)NC(=O)[C@H](C)NC(=O)[C@H](CCC(=O)O)NC(=O)[C@H](CCC(=O)O)NC(=O)[C@H](CCC(=O)O)NC(=O)[C@H](CCC(=O)O)NC(=O)[C@H](CCC(=O)O)NC(=O)[C@H](CC(C)C)NC(=O)[C@H](Cc1c[nH]c2ccccc12)NC(=O)[C@@H]1CCCN1C(=O)CNC(=O)[C@@H]1CCC(=O)N1)C(=O)N[C@@H](CC(=O)O)C(=O)N[C@@H](Cc1ccccc1)C(N)=O [Compound B] ([pGlu]GPWLEEEEEAYGWLDF-NH2)
- clearance from the bloodstream [1]: rapidly cleared

Compound: Gastrin-17: Native peptide hormone gastrin, 17-residue form (little gastrin or small gastrin)
- circulating half-life [2]: 5 to 9 min

Compound: Compound E: N-terminal Cys, gastrin residues 2-17 of SEQ ID NO: 4, no linker (GPWLEEEEEAYGWLDF; N-terminal Cys)
- reduction of blood glucose levels [3]: more effecting in reducing blood glucose levels
